The supplement of paper PMC11061612

Legend:
Assay in all cases: Bliss excess, mean over the matrix (fraction); higher = more synergy
[1] = system: A4-Fuk (B-Lymphoblastic Leukemia)
Procedure, shortened: (§1)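 Cell lines in DMEM/F12 or RPMI with 10% FBS were plated in 1536-well plates, held 24 hours at 37°C, 5% CO2, then given two-drug dose matrices for 72 hours (DMSO typically 0.2%). Viability was read by CellTiter-Glo 2.0 luminescence and scaled as inhibition from 0 (vehicle wells) to 1 (blank wells). Combination Emax is the second-highest inhibition in the matrix; Bliss excess is observed combination effect minus expected EA + EB − EA·EB, EA and EB being single-agent effects.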

[2] = system: COLO-668 (Small Cell Lung Carcinoma)
Procedure, shortened: as §1

[3] = system: COLO-679 (Melanoma)
Procedure, shortened: as §1

[4] = system: EJM (Plasma Cell Myeloma)
Procedure, shortened: as §1

[5] = system: G-401 (Other Solid Carcinomas)
Procedure, shortened: as §1

[6] = system: HCC1500 (Breast Carcinoma)
Procedure, shortened: as §1

[7] = system: HCC1937 (Breast Carcinoma)
Procedure, shortened: as §1

[8] = system: Hey (Ovarian Carcinoma)
Procedure, shortened: as §1

[9] = system: KGN (Other Solid Carcinomas)
Procedure, shortened: as §1

[10] = system: KMRC-1 (Kidney Carcinoma)
Procedure, shortened: as §1

[11] = system: ML-2 (Acute Myeloid Leukemia)
Procedure, shortened: as §1

[12] = system: MOLT-4 (T-Lymphoblastic Leukemia)
Procedure, shortened: as §1

[13] = system: MV-4-11 (Acute Myeloid Leukemia)
Procedure, shortened: as §1

[14] = system: Mo-T (Other Blood Carcinomas)
Procedure, shortened: as §1

[15] = system: NCI-H1092 (Small Cell Lung Carcinoma)
Procedure, shortened: as §1

[16] = system: NCI-H1355 (Lung Adenocarcinoma)
Procedure, shortened: as §1

[17] = system: NCI-H1993 (Lung Adenocarcinoma)
Procedure, shortened: as §1

[18] = system: SK-LU-1 (Lung Adenocarcinoma)
Procedure, shortened: as §1

[19] = system: SKN (Other Solid Carcinomas)
Procedure, shortened: as §1

[20] = system: SNU-387 (Hepatocellular Carcinoma)
Procedure, shortened: as §1

SMILES | Bliss excess [1] | Bliss excess [2] | Bliss excess [3] | Bliss excess [4] | Bliss excess [5] | Bliss excess [6] | Bliss excess [7] | Bliss excess [8] | Bliss excess [9] | Bliss excess [10] | Bliss excess [11] | Bliss excess [12] | Bliss excess [13] | Bliss excess [14] | Bliss excess [15] | Bliss excess [16] | Bliss excess [17] | Bliss excess [18] | Bliss excess [19] | Bliss excess [20]
Cc1c2c(nn1C)CSCc1cc(n(C)n1)CSc1cc(c3ccccc3c1)OCCCc1c(C(=O)O)n(C)c3c-2c(Cl)ccc13 [AZD5991] + CC1(C)CCC(CN2CCN(c3ccc(C(=O)NS(=O)(=O)c4ccc(NCC5CCOCC5)c([N+](=O)[O-])c4)c(Oc4cnc5[nH]ccc5c4)c3)CC2)=C(c2ccc(Cl)cc2)C1 [Venetoclax] (first compound max 1 µM, 7x7, partner max 1 µM) | -0.03 | 0.0932 | -0.0218 | 0.0164 | 0.0446 | 0.256 | -0.0208 | -0.0236 | -0.0308 | -0.0446 | 0.16 | 0.124 | 0.0591 | -0.0211 | 0.117 | -0.0567 | 0.0009 | -0.0368 | -0.0031 | -0.0426
Cc1c2c(nn1C)CSCc1cc(n(C)n1)CSc1cc(c3ccccc3c1)OCCCc1c(C(=O)O)n(C)c3c-2c(Cl)ccc13 [AZD5991] + CCN(CCO)CCCOc1ccc2c(Nc3cc(CC(=O)Nc4cccc(F)c4)[nH]n3)ncnc2c1 [AZD2811] (first compound max 1 µM, 7x7, partner max 1 µM) | 0.0579 | 0.0172 | 0.0115 | 0.0504 | -0.0061 | 0.0466 | -0.0028 | 0.0293 | -0.0067 | 0.0096 | -0.0122 | -0.0126 | -0.0046 | -0.0109 | 0.0479 | -0.0466 | -0.0072 | -0.0306 | 0.0261 | -0.0333
Cc1c2c(nn1C)CSCc1cc(n(C)n1)CSc1cc(c3ccccc3c1)OCCCc1c(C(=O)O)n(C)c3c-2c(Cl)ccc13 [AZD5991] + CN(C)CCCOc1ccc(-c2ccc3ncc4c(c3c2)n(C2CCOCC2)c(=O)n4C)cn1 [AZD0156] (first compound max 1 µM, 7x7, partner max 1 µM) | -0.0032 | 0.0135 | 0.0068 | 0.0241 | 0.0014 | 0.0453 | 0.0106 | -0.0039 | -0.0314 | -0.0412 | -0.0149 | -0.0058 | -0.0395 | -0.0236 | 0.0063 | -0.0298 | -0.0369 | -0.0889 | -0.0055 | -0.0536
Cc1c2c(nn1C)CSCc1cc(n(C)n1)CSc1cc(c3ccccc3c1)OCCCc1c(C(=O)O)n(C)c3c-2c(Cl)ccc13 [AZD5991] + C[C@@H]1COCCN1C2=NC(=NC(=C2)C3(CC3)[S@](=N)(=O)C)C4=C5C=CNC5=NC=C4 [AZD6738] (first compound max 1 µM, 7x7, partner max 10 µM) | -0.0297 | -0.0064 | 0.0047 | 0.0277 | -0.0341 | 0.105 | 0.061 | 0.012 | 0.0182 | 0.0201 | -0.0999 | 0.0318 | 0.0008 | 0.0152 | 0.0651 | 0.0264 | -0.0216 | -0.0032 | -0.0121 | 0.0408
Cc1c2c(nn1C)CSCc1cc(n(C)n1)CSc1cc(c3ccccc3c1)OCCCc1c(C(=O)O)n(C)c3c-2c(Cl)ccc13 [AZD5991] + C[C@@H](Nc1cc(F)cc(F)c1)c1cc(C(=O)N(C)C)cc2c(=O)cc(N3CCOCC3)oc12 [AZD8186] (first compound max 1 µM, 7x7, partner max 3 µM) | -0.023 | -0.0011 | 0.0127 | -0.0129 | -0.0579 | 0.0182 | -0.0001 | 0.0023 | -0.0528 | -0.0264 | -0.0218 | 0.0193 | 0.0375 | -0.0239 | 0.0172 | -0.064 | 0.0246 | 0.0004 | -0.0142 | -0.0089
Cc1c2c(nn1C)CSCc1cc(n(C)n1)CSc1cc(c3ccccc3c1)OCCCc1c(C(=O)O)n(C)c3c-2c(Cl)ccc13 [AZD5991] + Cc1cc2ncnn2cc1Nc1ncc2c(n1)n(C1CCOCC1)c(=O)n2C [AZD7648] (first compound max 1 µM, 7x7, partner max 10 µM) | 0.0085 | 0.0003 | 0.0019 | 0.0164 | -0.167 | -0.0471 | -0.015 | -0.015 | -0.0404 | -0.0161 | -0.0314 | -0.0072 | -0.0151 | -0.08 | -0.0458 | -0.0055 | -0.0225 | -0.062 | -0.0386 | -0.0318
C[C@@H]1COCCN1c1cc(C2([S@](C)(=N)=O)CC2)nc(-c2ccnc3[nH]ccc23)n1 [AZD6738] + O=C(c1cc(Cc2n[nH]c(=O)c3ccccc23)ccc1F)N1CCN(C(=O)C2CC2)CC1 [Olaparib] (first compound max 10 µM, 7x7, partner max 10 µM) | -0.0081 | 0.0193 | -0.0163 | -0.0078 | 0.0454 | 0.0412 | -0.0665 | 0.0379 | -0.0087 | 0.0003 | -0.0667 | 0.0556 | -0.0566 | 0.0311 | -0.0333 | -0.0357 | 0.033 | -0.03 | 0.0031 | -0.0225
NC1(C(=O)N[C@@H](CCO)c2ccc(Cl)cc2)CCN(c2ncnc3[nH]ccc23)CC1 [Capivasertib] + CC(=O)c1c(C)c2cnc(Nc3ccc(N4CCNCC4)cn3)nc2n(C2CCCC2)c1=O [Palbociclib] (first compound max 10 µM, 7x7, partner max 10 µM) | -0.0374 | -0.0496 | -0.201 | -0.0189 | -0.009 | 0.0017 | -0.0236 | 0.0123 | 0.0128 | -0.0272 | -0.0354 | -0.0002 | -0.0164 | -0.0271 | -0.0612 | 0.0107 | 0.0642 | -0.0139 | -0.0383 | -0.0515
NC1(C(=O)N[C@@H](CCO)c2ccc(Cl)cc2)CCN(c2ncnc3[nH]ccc23)CC1 [Capivasertib] + CC(C)n1c(=O)n(C)c2cnc3cc(F)c(-c4ccc(OCCCN5CCCCC5)nc4)cc3c21 [AZD1390] (first compound max 10 µM, 7x7, partner max 0.3 µM) | -0.0472 | -0.0298 | -0.116 | -0.0543 | -0.0346 | -0.0334 | -0.0666 | -0.0766 | -0.047 | -0.0645 | -0.0296 | -0.0083 | -0.0393 | -0.0451 | -0.0596 | -0.0206 | -0.0311 | -0.0747 | -0.055 | -0.101
NC1(C(=O)N[C@@H](CCO)c2ccc(Cl)cc2)CCN(c2ncnc3[nH]ccc23)CC1 [Capivasertib] + CCN(CCO)CCCOc1ccc2c(Nc3cc(CC(=O)Nc4cccc(F)c4)[nH]n3)ncnc2c1 [AZD2811] (first compound max 10 µM, 7x7, partner max 1 µM) | -0.0161 | 0.0318 | -0.2 | 0.0798 | -0.0072 | 0.0228 | 0.0005 | 0.0375 | -0.0623 | -0.0421 | -0.0094 | -0.0189 | -0.0436 | -0.0703 | -0.0137 | 0.045 | 0.0065 | -0.103 | -0.0219 | -0.0504
NC1(C(=O)N[C@@H](CCO)c2ccc(Cl)cc2)CCN(c2ncnc3[nH]ccc23)CC1 [Capivasertib] + COc1nnc2ccc(N3CCC(c4ccc(OCCN5CCN(C)C(=O)[C@H]5C)cc4)CC3)nn12 [AZD5153] (first compound max 10 µM, 7x7, partner max 1 µM) | -0.0465 | 0.0552 | -0.122 | 0.0732 | 0.012 | 0.0118 | 0.0189 | 0.0206 | 0.0358 | 0.0129 | -0.0187 | 0.0908 | 0.0074 | -0.0717 | -0.0087 | 0.0316 | 0.0372 | 0.0081 | 0.0238 | -0.004
NC1(C(=O)N[C@@H](CCO)c2ccc(Cl)cc2)CCN(c2ncnc3[nH]ccc23)CC1 [Capivasertib] + C[C@@H]1COCCN1C2=NC(=NC(=C2)C3(CC3)[S@](=N)(=O)C)C4=C5C=CNC5=NC=C4 [AZD6738] (first compound max 10 µM, 7x7, partner max 10 µM) | -0.0841 | -0.0501 | -0.128 | 0.0305 | -0.0856 | 0.0226 | -0.0142 | -0.0402 | -0.0783 | -0.0504 | -0.0241 | 0.0011 | -0.0546 | 0.0465 | -0.0055 | -0.0317 | -0.0598 | -0.0162 | -0.0477 | -0.0613
